Experimental data taken from patent US12447213B2, “Modulation of novel immune checkpoint targets” (The Brigham and Women's Hospital, Inc., priority 2016, dated 2025).

Assays:
Factor VII = settings: LNP siRNA systems containing these lipids; cited from earlier work
naïve CD4 T cells = experiment: Gp49 expression on naïve CD4 T cells cultured with polarizing cytokines (FACS day 3); assay type: cell-based, mice; settings: plate-bound anti-CD3/anti-CD28 plus polarizing cytokines
Th17 cells [1] = experiment: Binding of recombinant His-tagged integrin αvβ3 to Th17 cells (FACS); parameters: species or system mice; settings: pathogenic and non-pathogenic Th17
Experimental: (§1) FIG. 38. Integrin avb3 doesn't bind to Th17 cells (in Hank's balanced salt solution ((HBSS)) in the presence of Ca2+ and Mg2+. In vitro differentiated pathogenic and non-pathogenic Th17 cells were incubated with recombinant His-tagged integrin avb3 in HBSS buffer at room temperature for 30 min, washed twice, and then incubated with anti-His antibody for 10 min. Stained cells were analyzed by FACS.
as §1, with “FIG. 39.” for “FIG. 38.”, “(in phosphate buffered saline ((PBS))” for “(in Hank's balanced salt solution ((HBSS))”, “the absence” for “the presence”, “integrin αvβ3” for “integrin avb3”, “in PBS” for “in HBSS”
Role of Gp49 Ligand Integrin αvβ3. Integrin αvβ3 is a known ligand of ILT-3 that induces human mast cell degranulation in a Gp49b dependent way. To determine the expression pattern of integrin αvβ3, FACs analysis was performed on various immune cell subsets. […] Expression of αv and β3 integrin were analyzed by FACS and qPCR on day 4. […] Stained cells were analyzed by FACS. […] Stained cells were analyzed by FACS. […] Next, the effect of plate-bound integrin was determined. […] Cytokine production from Th17 cells was measured by FACS on day 4.

Th17 cells [2] = experiment: Th17 differentiation in the presence of plate bound integrin αvβ3, cytokine production by FACS; assay type: cell-based, mice; settings: 10 ug/ml, BSA as control
Experimental: FIG. 40. […] Anti-CD3/CD28 beads are used at a ratio of 1:1. Naïve T cells were differentiated into pathogenic or non-pathogenic Th17 cells in vitro with anti-CD3/CD28 Dynabeads (Thermo Fisher Scientific) in the presence of plate bound integrin avb3 (10 ug/ml) or BSA (10 ug/ml) as control. Cytokine production from Th17 cells were measured by FACS on day 4.
Role of Gp49 Ligand Integrin αvβ3. Integrin αvβ3 is a known ligand of ILT-3 that induces human mast cell degranulation in a Gp49b dependent way. To determine the expression pattern of integrin αvβ3, FACs analysis was performed on various immune cell subsets. CD4^+CD44^loCD62L^hi naïve CD4 T cells were sorted by FACS and cultured in vitro with plate-bound anti-CD3 (2 ug/ml) and anti-CD28 (2 ug/ml) plus the following polarizing cytokines: IL12 (20 ng/ml) for Th1 cells; IL4 (20 ng/ml) for Th2 cells; TGFb (5 ng/ml) for iTreg cells; IL27 (25 ng/ml) for Tr1 cells; TGFb (2 ng/ml) and IL6 (25 ng/ml) for non-pathogenic Th17; IL1 (20 ng/ml), IL6 (25 ng/ml) and IL23 (20 ng/ml) for pathogenic Th17. Expression of αv and β3 integrin were analyzed by FACS and qPCR on day 4. […] Stained cells were analyzed by FACS. […] Stained cells were analyzed by FACS. […] Next, the effect of plate-bound integrin was determined. […] Cytokine production from Th17 cells was measured by FACS on day 4.

[3] = test system: naïve CD4+ and CD8+ T cells; experiment: In vitro T-cell differentiation with IL-27: co-inhibitory receptor expression by real-time PCR and flow cytometry; assay type: cell-based, mice
From the text: FIG. 1A-1M. illustrates that IL-27 induces multiple co-inhibitory receptors on CD4^+ and CD8^+ T cells. CD4^+ and CD8^+ tumor-infiltrating lymphocytes (TILs) harvested from wild type (WT) mice bearing B16F10 melanoma tumors. FIG. 1A) Naïve T cells from either WT or IL-27ra deficient mice (IL27ra KO) were stimulated with anti-CD3/CD28 in the presence or absence of IL-27 as indicated. Expression of the indicated co-inhibitory molecules was examined by real-time PCR at 96 hr (CD4) and 72 hr (CD8), n≥3, error bars indicate s.e.m. FIG. 1B) Surface expression of co-inhibitory receptors on T cells stimulated as in (A) was determined by flow cytometry. Representative data are shown. FIG. 1C) Co-expression analysis of co-inhibitory and co-stimulatory receptor mRNA expression as determined by single cell RNAseq (316 and 516 for CD4^+ and CD8^+ respectively). For visualization purposes negative correlation values were set to zero. FIG. 1D) Protein expression by CyTOF for 23,656 CD4^+ and 36,486 CD8^+ TILs. Co-expression was analyzed using Spearman correlation. For visualization purposes negative correlation values were set to zero. FIG. 1E) TILs were harvested from WT and IL27ra KO mice bearing B16F10 melanoma and analyzed using CyTOF. CyTOF data were analyzed using vi-SNE. Polygons indicating clusters 1, 2 (in CD8^+ T cells), 3 and 4 (in CD4^+ T cells) are shown. FIG. 1F) The within groups sum of squared error (SSE) plot. […] FIG. 1G) Gap statistics for estimating the optimal number of clusters using k-means from 1 up to 12 clusters using bootstrapping and first SE max method. […] Visualization of cluster distribution using two-dimensional non-linear embedding of the protein expression profiles by t-SNE. FIG. 1I) CyTOF expression analysis of co-inhibitory and co-stimulatory receptors in TILs harvested from B16F10 melanoma tumor-bearing WT and […] mice from FIG. 1A and FIG. 1J using t-SNE. FIG. 1J) vi-SNE plot highlighting the distribution of CD8^+ TILs from WT (red) and IL27ra KO (blue) mice in clusters 1 and 2 and CD4^+ TILs from WT (red) and IL27ra KO (blue) mice in clusters 3 and 4. Pie charts show the distribution of WT or IL27ra KO CD8^+ and CD4^+ TILs in each cluster. Bar graphs show the mean of signal intensity for PD-1, Tim-3, Lag-3, and TIGIT from WT and IL27ra KO TILs. Error bars are the standard error and p-values for significance are calculated using standard t-test (**p<0.01). FIG. 1K) Expression of PD-1, Tim-3, Lag-3, TIGIT, and IL-10 on CD8^+ TILs obtained from WT and IL27ra KO mice bearing B16F10 melanoma was determined by flow cytometry. Thy1.1-IL-10 reporter mice crossed with WT and IL27ra KO mice were used for IL-10 expression analysis. FIG. 1L, FIG. 1M) Impact of IL-27 signaling on co-inhibitory receptor expression in TILs. Pie charts show the distribution of CD8^+ and CD4^+ TILs from WT and IL27ra KO mice bearing B16F10 melanoma between clusters 1 and 2 for CD8^+ and between clusters 3 and 4 for CD4^+ TILs as determined by k-means clustering of CyTOF protein expression data.
Flow cytometry: Single cell suspensions were stained with antibodies against CD4 (RM4-5), CD8 (53-6.7), PD-1 (RMP1-30), Lag-3 (C9B7W), TIGIT (GIGD7), and Tim-3 (5D12), Procr (eBio1560), and Pdpn (8.1.1) and were obtained from BioLegend (San Diego, Calif.). Fixable viability dye eF506 (eBioscience) was used to exclude dead cells. For intra-cytoplasmic cytokine staining, cells were stimulated with (PMA) (50 ng/ml, Sigma-Aldrich, MO), ionomycin (1 μg/ml, Sigma-Aldrich, MO). Permeabilized cells were then stained with antibodies against IL-2, TNF-α, IFN-γ or IL-10. All data were collected on a BD LSR II (BD Biosciences) and analyzed with FlowJo software (Tree Star).
In vitro T-cell differentiation: CD4^+ and CD8^+ T cells were purified from spleen and lymph nodes using anti-CD4 microbeads (Miltenyi Biotech) then stained in PBS with 0.5% BSA for 15 min on ice with anti-CD4, anti-CD8, anti-CD62L, and anti-CD44 antibodies (all from Biolegend, CA). […]

[4] = activation of naïve CD4+ and CD8+ T cells in vitro in the presence of IL-27
[5] = anti-CD3/CD28 in the presence of IL-27, CD4+ and CD8+ T cells

## 1,2-dilinoleyloxy-keto-N,N-dimethyl-3-aminopropane [DLinKDMA]
Factor VII
  gene silencing potency series: DLinKC2-DMA>DLinKDMA>DLinDMA>>DLinDAP

## TGFb
naïve CD4 T cells
  Gp49 expression: inhibited

## CCCCC/C=C\C/C=C\CCCCCCCCC1(CCCCCCCC/C=C\C/C=C\CCCCC)OCC(CCN(C)C)O1 (centres unmarked) [DLinKC2-DMA, 1,2-dilinoleyl-4-(2-dimethylaminoethyl)-[1,3]-dioxolane]
Factor VII
  gene silencing potency series: DLinKC2-DMA>DLinKDMA>DLinDMA>>DLinDAP

## Integrin αvβ3: recombinant His-tagged integrin αvβ3, a known ligand of ILT-3
Th17 cells [1]; HBSS, in the presence of Ca2+ and Mg2+
  binding to Th17 cells: doesn't bind
Th17 cells [1]; PBS, in the absence of Ca2+ and Mg2+
  binding to Th17 cells: doesn't bind
Th17 cells [2]
  effect on Th17 cells (cytokine production, FACS day 4): does not appear to have much effect

## CCCCC/C=C\C/C=C\CCCCCCCC(=O)OCC(CN(C)C)OC(=O)CCCCCCC/C=C\C/C=C\CCCCC (centres unmarked) [DLinDAP, 1,2-dilineoyl-3-dimethylammonium-propane]
Factor VII
  gene silencing potency series: DLinKC2-DMA>DLinKDMA>DLinDMA>>DLinDAP

## CCCCC/C=C\C/C=C\CCCCCCCCOCC(CN(C)C)OCCCCCCCC/C=C\C/C=C\CCCCC (centres unmarked) [DLinDMA, 1,2-dilinoleyloxy-3-N,N-dimethylaminopropane]
Factor VII
  gene silencing potency series: DLinKC2-DMA>DLinKDMA>DLinDMA>>DLinDAP

B1: IL-27: heterodimeric cytokine, member of the IL-12 family; rmIL-27 (25 ng/ml) (eBioscience) used in vitro (protein)
chain 1: FPTDPLSLQELRREFTVSLYLARKLLSEVQGYVHSFAESRLPGVNLDLLPLGYHLPNVSLTFQAWHHLSDSERLCFLATTLRPFPAMLGGLGTQGTWTSSEREQLWAMRLDLRDLHRHLRFQVLAAGFKCSKEEEDKEEEEEEEEEEKKLPLGALGGPNQVSSQVSWPQLLYTYQLLHSLELVLSRAVRDLLLLSLPRRPGSAWDS
chain 2: YTETALVALSQPRVQCHASRYPVAVDCSWTPLQAPNSTRSTSFIATYRLGVATQQQSQPCLQRSPQASRCTIPDVHLFSTVPYMLNVTAVHPGGASSSLLAFVAERIIKPDPPEGVRLRTAGQRLQVLWHPPASWPFPDIFSLKYRLRYRRRGASHFRQVGPIEATTFTLRNSKPHAKYCIQVSAQDLTDYGKPSDWSLPGQVESAPHKP
[3]; [4]
  Pdpn expression by qPCR and flow cytometry: induced
  Procr expression by qPCR and flow cytometry: induced
[3]; [5]
  Lag-3 expression, mRNA and protein level: induced
  TIGIT expression, mRNA and protein level: induced
  Tim-3 (Havcr2) expression, mRNA and protein level: induced
[3]; in vitro, anti-CD3/CD28 in the presence of IL-27
  PD-1 (Pdcd1) expression: not affected
